This note sets out measurements from patent publication US8853424B2 (Japan Science and Technology Agency, priority 2008, dated 2014).

Assay [1] relates to Truncated N-terminal huntington 150 Q-EGFP-Neuron 2a cells. Briefly: Measurement of x-Fold (polyglutamine aggregation inhibitory activity). Type of assay: cell-based. As to the method:
In the present invention, the polyglutamine aggregation inhibitory activity (x-Fold) can be measured, for example, by the method described in the Example.
The number of the aggregated cells, and the total number of cells were counted by Array Scan V T1 (manufactured by Cellomics, Pittuburg, USA), and the ratio of the aggregated cells to the total number of cells was determined (x-Fold). […]

Another assay concerns transglutaminase (TGase). Briefly: Measurement of TG (TGase inhibitory activity, monodansyl cadaverine / N,N-dimethylcasein fluorescence, FDSS 3000). It counts as biochemical. The gist of the method: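 Compound (1 μL of 10 mM stock) added to 0.1 mL reaction: 100 mM HEPES-NaOH pH 7.5, 1 mM CaCl2, 20 μM monodansyl cadaverine, 0.05 mg/mL N,N-dimethylcasein, 5 μg/mL TGase. Rate of fluorescence change at 340 nm measured; DMSO control set to 100; TG50 is the concentration halving activity.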

[2] abbreviates: polyglutamine aggregation inhibitory activity, Table 1.
[3] abbreviates: ratio of aggregated cells to total number of cells, compound 20 μM, 20 hr, almost 1 without compound, smaller = stronger inhibition.
Setting [4] is: TGase activity with compound (10 mM, 1 μL in 0.1 ml enzyme reaction solution), DMSO control taken as 100.
The mark [5] stands for this setting: TGase inhibitory activity value, Table 1.
Where [6] appears, read: polyglutamine aggregation, Truncated N-terminal huntington 150 Q-EGFP-Neuron 2a cells.
[7] abbreviates: TGase inhibitory activity measurement, unit not given.

On to `Cc1ccc(B(O)c2ccc(-c3ccc(B(O)c4ccc(C)cc4)cc3)cc2)cc1` [Example 363, 4,4′-(4-methylphenylhydroxyboryl)diphenyl], for which the x-Fold in assay [1] (setting [2]) and in assay [1] (setting [3]) was 0.92 throughout. In addition, the “TGase activity remaining (% of DMSO control = 100)” value in the assay on transglutaminase (TGase) (setting [4]) and in the assay with transglutaminase (TGase) (setting [5]) was 97 in each case.
Turning to `COc1ccc(C(OB(c2ccccc2)c2ccc(COc3ccc(B(OC(c4ccc(OC)cc4)c4ccccn4)c4ccccc4)cc3)cc2)c2ccccn2)cc1` (stereo not shown) [Example 430, 4-(phenyl-p-methoxyphenyl-2-pyridylmethoxyboryl)-phenyl 4′-(phenyl-p-methoxyphenyl-2-pyridylmethoxyboryl)benzylether], the x-Fold in assay [1] (setting [6]) and in assay [1] (setting [3]) was 1.03 in each case. Besides, the “TGase activity remaining (% of DMSO control = 100)” value in the assay with transglutaminase (TGase) (setting [4]) and in the assay with transglutaminase (TGase) (setting [7]) was 106 in each case.
On to `OB(c1ccc(COCc2ccc(B(O)c3ccc(F)c(F)c3)cc2)cc1)c1ccc(F)c(F)c1` [Example 352, bis(4-(3,4-difluorophenylhydroxyboryl)benzyl)ether], for which the x-Fold in assay [1] (setting [2]) and in assay [1] (setting [3]) was 1.02 in each case. In addition, the “TGase activity remaining (% of DMSO control = 100)” value in the assay on transglutaminase (TGase) (setting [4]) and with transglutaminase (TGase) (setting [5]) was 97 in each case.
On to `NC(=O)CCC(N)C(=O)OB(c1ccsc1)c1ccc2sc3ccc(B(OC(=O)C(N)CCC(N)=O)c4ccsc4)cc3c2c1` (stereo not shown) [Example 304, 2,8-di(3-thiophenylglutamine-O,N boryl)dibenzothiophene], for which the x-Fold in assay [1] (setting [2]) and in assay [1] (setting [3]) was 0.90 each time. Besides, the “TGase activity remaining (% of DMSO control = 100)” value in the assay with transglutaminase (TGase) (setting [4]) and with transglutaminase (TGase) (setting [5]) was 47 in each case.
With “diphenyl(FITC-2,6-diaminocapronate-O,N)borane [Example 177]”, the x-Fold in assay [1] (setting [2]) and in assay [1] (setting [3]) was 1.00 each time. For the same compound, the “TGase activity remaining (% of DMSO control = 100)” value in the assay with transglutaminase (TGase) (setting [4]) and in the assay with transglutaminase (TGase) (setting [5]) was 28 each time.
Regarding `NCCNCCOB(c1ccccc1)c1ccccc1` [Example 154, diphenyl 2-aminoethylaminoethyl borinate], the x-Fold in assay [1] (setting [2]) is listed as 0.96-; in assay [1] (setting [3]), 0.96. The “TGase activity remaining (% of DMSO control = 100)” value in the assay on transglutaminase (TGase) (setting [4]) and in the assay with transglutaminase (TGase) (setting [5]) was 105 throughout.
As for `Cc1ccc2cccc(OB(c3ccccc3)c3ccc(Oc4ccc(B(Oc5cccc6ccc(C)nc56)c5ccccc5)cc4)cc3)c2n1` [Example 477, bis(4,4′-(phenyl-2-methyl-8-quinolinooxyboryl)phenyl)ether], the x-Fold in assay [1] (setting [6]) and in assay [1] (setting [3]) was 1.02 in each case. Also, the “TGase activity remaining (% of DMSO control = 100)” value with transglutaminase (TGase) (setting [4]) and in the assay on transglutaminase (TGase) (setting [7]) was 97 throughout.
Regarding `c1ccc(B(ON2CCCCC2)c2cccc(Oc3cccc(B(ON4CCCCC4)c4ccccc4)c3)c2)cc1` [Example 195, di(phenyl 3-piperidinooxyborylphenyl)ether], the x-Fold in assay [1] (setting [2]) and in assay [1] (setting [3]) was 0.77 each time. Further, the “TGase activity remaining (% of DMSO control = 100)” value in the assay with transglutaminase (TGase) (setting [4]) and in the assay on transglutaminase (TGase) (setting [5]) was 115 each time.
Take `OB(c1ccccc1)c1ccccc1B(O)c1ccccc1` [Example 121, 1,2-bis(phenylhydroxyboryl)benzene]: the x-Fold is 0.94 in assay [1] (polyglutamine aggregation inhibitory activity, Table 1, listed as 583) and 0.94 in assay [1] (setting [3]). Also, the “TGase activity remaining (% of DMSO control = 100)” value with transglutaminase (TGase) (setting [4]) was found to be 121; in the assay with transglutaminase (TGase) (TGase inhibitory activity value, Table 1, listed as 583), 121.
As to `CN(C)CCOB(c1cc(F)cc(F)c1)c1cc(F)cc(F)c1` [Example 92, dimethylaminoethyl bis(3,5-difluorophenyl)borinate], the x-Fold in assay [1] (setting [2]) and in assay [1] (setting [3]) was 1.00 in each case. For the same compound, the “TGase activity remaining (% of DMSO control = 100)” value with transglutaminase (TGase) (setting [4]) and in the assay on transglutaminase (TGase) (setting [5]) was 106 in each case.
On to `CSCCC(N)C(=O)OB(c1ccccc1)c1ccccc1` (stereo not shown) [Example 194, diphenyl(methionate-O,N)borane], for which the x-Fold in assay [1] (setting [2]) and in assay [1] (setting [3]) was 1.03 in each case. Also, the “TGase activity remaining (% of DMSO control = 100)” value in the assay on transglutaminase (TGase) (setting [4]) and in the assay on transglutaminase (TGase) (setting [5]) was 106 each time.
On to `NCCOB(c1cccc(COCc2cccc(B(OCCN)c3cccc4ccccc34)c2)c1)c1cccc2ccccc12` [Example 376, bis(3-(1-naphthylaminoethoxyboryl)benzyl)ether], for which the x-Fold in assay [1] (setting [2]) and in assay [1] (setting [3]) was 0.93 in each case. The “TGase activity remaining (% of DMSO control = 100)” value in the assay with transglutaminase (TGase) (setting [4]) and in the assay on transglutaminase (TGase) (setting [5]) was 75 in each case.
Turning to `OB(c1ccccc1)c1ccc(-c2ccc(B(O)c3ccccc3)cc2)cc1` [Example 140, 4,4′-phenylhydroxyboryl 4-biphenyl], the x-Fold in assay [1] (setting [2]) and in assay [1] (setting [3]) was 0.85 throughout. In addition, the “TGase activity remaining (% of DMSO control = 100)” value with transglutaminase (TGase) (setting [4]) and in the assay on transglutaminase (TGase) (setting [5]) was −72 throughout.
Consider `OB(c1ccccc1)c1ccccc1B(O)c1ccccc1` [Example 297, 1,2-di(phenylhydroxyboryl)benzene], for which the x-Fold in assay [1] (polyglutamine aggregation inhibitory activity, Table 1, listed as 806) came to 0.69; in assay [1] (setting [3]), 0.69. In addition, the “TGase activity remaining (% of DMSO control = 100)” value with transglutaminase (TGase) (setting [4]) came to 89; in the assay with transglutaminase (TGase) (TGase inhibitory activity value, Table 1, listed as 806) it was 89.
In the case of `Fc1ccc(NCCOBc2cccc(COCc3cccc(BOCCNc4ccc(F)cc4)c3)c2)cc1` [Example 337, bis(3-(4-fluorophenylaminoethoxyboryl)benzyl)ether], the x-Fold in assay [1] (setting [2]) and in assay [1] (setting [3]) was 0.98 each time. Moreover, the “TGase activity remaining (% of DMSO control = 100)” value in the assay with transglutaminase (TGase) (setting [4]) and with transglutaminase (TGase) (setting [5]) was 102 each time.
For `c1ccc(B(OCCN2CCCCC2)c2cccc(COCc3cccc(B(OCCN4CCCCC4)c4ccccc4)c3)c2)cc1` [Example 466, bis(3,3′-(phenyl-1-piperidylethoxyboryl)benzyl)ether], the x-Fold in assay [1] (setting [6]) and in assay [1] (setting [3]) was 1.04 each time. The “TGase activity remaining (% of DMSO control = 100)” value in the assay with transglutaminase (TGase) (setting [4]) and in the assay on transglutaminase (TGase) (setting [7]) was 71 throughout.
Turning to `OB(c1ccccc1)c1ccc(B(O)c2ccccc2)c2ccccc12` [Example 135, 1,4-bis(phenylhydroxyboryl)naphthalene], the x-Fold in assay [1] (setting [2]) and in assay [1] (setting [3]) was 1.03 each time. Also, the “TGase activity remaining (% of DMSO control = 100)” value with transglutaminase (TGase) (setting [4]) and with transglutaminase (TGase) (setting [5]) was 99 throughout.
With `Cc1ccc(Cl)cc1B(OCC1CCCCN1)c1cc(Cl)ccc1C` (stereo not shown) [Example 371], the x-Fold in assay [1] (setting [2]) is listed as 1.17. Further, the “TGase activity remaining (% of DMSO control = 100)” value in the assay with transglutaminase (TGase) (setting [5]) came out at 98.
On to `OB(c1ccc(COCc2cccc(B(O)c3cc(F)c(F)c(F)c3)c2)cc1)c1cc(F)c(F)c(F)c1` [Example 342, (3-(3′,4′,5′-trifluorophenylhydroxyboryl)benzyl)(4-(3′,4′,5′-trifluorophenylhydroxyboryl)benzyl)ether], for which the x-Fold in assay [1] (setting [2]) and in assay [1] (setting [3]) was 1.02 throughout. The “TGase activity remaining (% of DMSO control = 100)” value in the assay on transglutaminase (TGase) (setting [4]) and in the assay on transglutaminase (TGase) (setting [5]) was 114 in each case.
On to `c1ccc(B(OCCN2CCN(CCOB(c3ccccc3)c3ccccc3)CC2)c2ccccc2)cc1` [Example 239, bis(diphenyl piperazino-O,O-ethoxyborane)], for which, in assay [1] (setting [3]), the x-Fold was found to be 0.94. For the same compound, the “TGase activity remaining (% of DMSO control = 100)” value in the assay with transglutaminase (TGase) (setting [4]) was determined as 126.
